In patent US20250100968A1, “BICYCLIC-HETEROCYCLE DERIVATIVES AND RELATED USES” (CENTESSA PHARMACEUTICALS (UK) LIMITED, priority 2022, published 2025) one finds EC50 data, which are given here for 18 molecules.
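Note: agonist activity in CHO cells stably expressing hOX2R, intracellular Ca2+ via Calcium 5 dye fluorescence area over 2 min, buffer-only as 0% and 10 nM orexin A as 100%.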

In the assay the target is T1, human orexin type 2 receptor (hOX2R) (Homo sapiens, UniProt O43614).
T1 sequence (O43614 1-444): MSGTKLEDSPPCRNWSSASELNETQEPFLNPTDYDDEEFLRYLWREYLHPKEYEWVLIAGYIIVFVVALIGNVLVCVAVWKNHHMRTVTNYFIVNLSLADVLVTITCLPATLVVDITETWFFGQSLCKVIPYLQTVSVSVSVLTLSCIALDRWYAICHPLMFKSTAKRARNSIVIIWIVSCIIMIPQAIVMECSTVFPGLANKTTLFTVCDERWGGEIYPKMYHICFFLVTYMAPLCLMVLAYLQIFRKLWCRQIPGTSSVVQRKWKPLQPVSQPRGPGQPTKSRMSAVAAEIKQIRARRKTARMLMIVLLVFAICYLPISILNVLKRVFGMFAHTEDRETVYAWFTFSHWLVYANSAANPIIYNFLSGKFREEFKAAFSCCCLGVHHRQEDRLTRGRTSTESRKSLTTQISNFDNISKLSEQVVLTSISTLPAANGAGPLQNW
The assay can be described thus: cell-based.
What is called EC50 is the concentration needed to bring the measured effect to its halfway point. `N#CC1(C(=O)N2CC3(CC3)[C@H](NS(=O)(=O)CF)[C@@H]2Cc2cccc(-c3ccccc3)c2F)COC1` [compound 34, N-((6S,7S)-5-(3-cyanooxetane-3-carbonyl)-6-((2-fluoro-[1,1′-biphenyl]-3-yl)methyl)-5-azaspiro[2.4]heptan-7-yl)-1-fluoromethanesulfonamide] returned a half-maximal effective concentration (EC50) of 0.0631 to 1 nM.
For `C[C@@](O)(CF)C(=O)N1CC2(CC2)[C@H](NS(=O)(=O)CF)[C@@H]1Cc1cccc(-c2ccccc2)c1F` [compound 35, 1-fluoro-N-((6S,7S)-5-((S)-3-fluoro-2-hydroxy-2-methylpropanoyl)-6-((2-fluoro-[1,1′-biphenyl]-3-yl)methyl)-5-azaspiro[2.4]heptan-7-yl)methanesulfonamide] the value was 0.0631 to 1 nM.
For `O=C([C@H]1CCO1)N1CC2(CC2)[C@H](NS(=O)(=O)C2(F)CC2)[C@@H]1Cc1cccc(-c2cc(F)cc(F)c2)c1F` [compound 36, 1-fluoro-N-((6S,7S)-5-((R)-oxetane-2-carbonyl)-6-((2,3′,5′-trifluoro-[1,1′-biphenyl]-3-yl)methyl)-5-azaspiro[2.4]heptan-7-yl)cyclopropane-1-sulfonamide] the value was 0.0631 to 1 nM; for `CC(C)(F)CNC(=O)N1CC2(CC2)[C@H](NS(=O)(=O)CF)[C@@H]1Cc1cccc(-c2cc(F)cc(F)c2)c1F` [compound 37, (6S,7S)-N-(2-fluoro-2-methylpropyl)-7-((fluoromethyl)sulfonamido)-6-((2,3′,5′-trifluoro-[1,1′-biphenyl]-3-yl)methyl)-5-azaspiro[2.4]heptane-5-carboxamide], 1 to 10 nM; for `CC(F)(F)CNC(=O)N1CC2(CC2)[C@H](NS(=O)(=O)CF)[C@@H]1Cc1cccc(-c2cc(F)cc(F)c2)c1F` [compound 38, (6S,7S)-N-(2,2-difluoropropyl)-7-((fluoromethyl)sulfonamido)-6-((2,3′,5′-trifluoro-[1,1′-biphenyl]-3-yl)methyl)-5-azaspiro[2.4]heptane-5-carboxamide], 1 to 10 nM.
For `CC(F)(F)CNC(=O)N1CC2(CC2)[C@H](NS(=O)(=O)C(F)F)[C@@H]1Cc1cccc(-c2cc(F)cc(F)c2)c1F` [compound 39, (6S,7S)-7-((difluoromethyl)sulfonamido)-N-(2,2-difluoropropyl)-6-((2,3′,5′-trifluoro-[1,1′-biphenyl]-3-yl)methyl)-5-azaspiro[2.4]heptane-5-carboxamide] the value was 1 to 10 nM.
On to `C[C@H](C#N)C(=O)N1CC2(CC2)[C@H](NS(=O)(=O)C(F)F)[C@@H]1Cc1cccc(-c2ccccc2)c1F` [compound 40, N-((6S,7S)-5-((R)-2-cyanopropanoyl)-6-((2-fluoro-[1,1′-biphenyl]-3-yl)methyl)-5-azaspiro[2.4]heptan-7-yl)-1,1-difluoromethanesulfonamide], for which the EC50 lay within 1 to 10 nM.
For `C[C@@H](C#N)C(=O)N1CC2(CC2)[C@H](NS(=O)(=O)C(F)F)[C@@H]1Cc1cccc(-c2ccccc2)c1F` [compound 41, N-((6S,7S)-5-((S)-2-cyanopropanoyl)-6-((2-fluoro-[1,1′-biphenyl]-3-yl)methyl)-5-azaspiro[2.4]heptan-7-yl)-1,1-difluoromethanesulfonamide] the value was 1 to 10 nM.
For the molecule `O=C([C@H]1CCCO1)N1CC2(CC2)[C@H](NS(=O)(=O)CF)[C@@H]1Cc1cccc(-c2cc(F)cc(F)c2)c1F` [compound 42, 1-fluoro-N-((6S,7S)-5-((R)-tetrahydrofuran-2-carbonyl)-6-((2,3′,5′-trifluoro-[1,1′-biphenyl]-3-yl)methyl)-5-azaspiro[2.4]heptan-7-yl)methanesulfonamide], the EC50 lay in the range of 1 to 10 nM.
For `N#C[C@@]1(C(=O)N2CC3(CC3)[C@H](NS(=O)(=O)CF)[C@@H]2Cc2cccc(-c3cccc(F)c3)c2F)CCO1` [compound 45, N-((6S,7S)-5-((R)-2-cyanooxetane-2-carbonyl)-6-((2,3′-difluoro-[1,1′-biphenyl]-3-yl)methyl)-5-azaspiro[2.4]heptan-7-yl)-1-fluoromethanesulfonamide] the value was 1 to 10 nM.
Under `N#C[C@]1(C(=O)N2CC3(CC3)[C@H](NS(=O)(=O)CF)[C@@H]2Cc2cccc(-c3cccc(F)c3)c2F)CCO1` [compound 46, N-((6S,7S)-5-((S)-2-cyanooxetane-2-carbonyl)-6-((2,3′-difluoro-[1,1′-biphenyl]-3-yl)methyl)-5-azaspiro[2.4]heptan-7-yl)-1-fluoromethanesulfonamide] stands 1 to 10 nM; under `N#C[C@]1(C(=O)N2CC3(CC3)[C@H](NS(=O)(=O)CF)[C@@H]2Cc2cccc(-c3cc(F)cc(F)c3)c2F)CCO1` [compound 47, N-((6S,7S)-5-((S)-2-cyanooxetane-2-carbonyl)-6-((2,3′,5′-trifluoro-[1,1′-biphenyl]-3-yl)methyl)-5-azaspiro[2.4]heptan-7-yl)-1-fluoromethanesulfonamide], 1 to 10 nM; under `N#C[C@]1(C(=O)N2CC3(CC3)[C@H](NS(=O)(=O)C(F)F)[C@@H]2Cc2cccc(-c3cc(F)cc(F)c3)c2F)CCO1` [compound 48, N-((6S,7S)-5-((S)-2-cyanooxetane-2-carbonyl)-6-((2,3′,5′-trifluoro-[1,1′-biphenyl]-3-yl)methyl)-5-azaspiro[2.4]heptan-7-yl)-1,1-difluoromethanesulfonamide], 0.0631 to 1 nM.
For `C[C@H](C#N)C(=O)N1CC2(CC2)[C@H](NS(=O)(=O)C(F)F)[C@@H]1Cc1cccc(-c2cc(F)cc(F)c2)c1F` [compound 49, N-((6S,7S)-5-((R)-2-cyanopropanoyl)-6-((2,3′,5′-trifluoro-[1,1′-biphenyl]-3-yl)methyl)-5-azaspiro[2.4]heptan-7-yl)-1,1-difluoromethanesulfonamide] the value was 1 to 10 nM.
As to `O=C([C@H]1CCCO1)N1CC2(CC2)[C@H](NS(=O)(=O)C(F)F)[C@@H]1Cc1cccc(-c2cc(F)cc(F)c2)c1F` [compound 50, 1,1-difluoro-N-((6S,7S)-5-((R)-tetrahydrofuran-2-carbonyl)-6-((2,3′,5′-trifluoro-[1,1′-biphenyl]-3-yl)methyl)-5-azaspiro[2.4]heptan-7-yl)methanesulfonamide], the EC50 was in the range of 1 to 10 nM.
For `CC(C)(F)CNC(=O)N1CC2(CC2)[C@H](NS(=O)(=O)CF)[C@@H]1Cc1cc(F)cc(-c2ccccc2)c1F` [compound 51, (6S,7S)-6-((2,5-difluoro-[1,1′-biphenyl]-3-yl)methyl)-N-(2-fluoro-2-methylpropyl)-7-((fluoromethyl)sulfonamido)-5-azaspiro[2.4]heptane-5-carboxamide] the value was 0.0631 to 1 nM; for `COC1CN(C(=O)N2CC3(CC3)[C@H](NS(=O)(=O)C(F)F)[C@@H]2Cc2cccc(-c3cc(F)cc(F)c3)c2F)C1` [compound 52, 1,1-difluoro-N-((6S,7S)-5-(3-methoxyazetidine-1-carbonyl)-6-((2,3′,5′-trifluoro-[1,1′-biphenyl]-3-yl)methyl)-5-azaspiro[2.4]heptan-7-yl)methanesulfonamide], 1 to 10 nM; for `N#C[C@]1(C(=O)N2CC3(CC3)[C@H](NS(=O)(=O)C(F)F)[C@@H]2Cc2cccc(-c3cccc(F)c3)c2F)CCO1` [compound 53, N-((6S,7S)-5-((S)-2-cyanooxetane-2-carbonyl)-6-((2,3′-difluoro-[1,1′-biphenyl]-3-yl)methyl)-5-azaspiro[2.4]heptan-7-yl)-1,1-difluoromethanesulfonamide], 1 to 10 nM.
